Usually melting point stands for the temperature, or range, at which the solid turns liquid.

Three compounds from patent US20050004124A1, “THERAPIES RELATING TO COMBINATIONS OF ALDOSE REDUCTASE INHIBITORS AND CYCLOOXYGENASE-2 INHIBITORS” (priority 2001, published 2005) can be followed below.

For `O=c1ccc(S(=O)(=O)c2oc3ccccc3c2O)n[nH]1` [Example 16, 6-(3-Hydroxy-benzofuran-2-sulfonyl)-2H-pyridazin-3-one], the melting point lay in the range of 186 to 189 °C.

Compound `O=c1ccc(S(=O)(=O)c2[nH]c3ccccc3c2Cl)n[nH]1` [Example 36, 6-(3-Chloro-indole-2-sulfonyl)-2H-pyridazin-3-one] registered a melting point of 250 °C.

As to `Cn1c(S(=O)(=O)c2ccc(=O)[nH]n2)cc2ccccc21` [Example 40, 6-(N-Methylindole-2-sulfonyl)-2H-pyridazin-3-one], the melting point lay within 233 to 235 °C.
